According to patent publication US11299472B2, “Fumarate salt of (R)-3-(1-(2,3-dichloro-4-(pyrazin-2-yl)phenyl)-2,2,2- trifluoroethyl)-1-methyl-1-(1-methylpiperidin-4-yl) urea, methods of preparation, and uses thereof” (Helsinn Healthcare SA, priority 2017, dated 2022):
Ends that are not written are not given here.

Legend:
[1] = test system: Snord116+/− (Het) mice and wild-type (WT) littermates; assay: Food intake after acute administration in Prader-Willi mouse model; type: in vivo; settings: cabergoline 0.5 mg/kg single i.p., fasted 16 hours
Source text: The effect of HM04 fumarate salt on food intake behavior and glucose tolerance was investigated in the Snord116+/−(Het) mouse genetic model of Prader-Willi syndrome (Het mouse) compared to wild-type (WT) littermates. Since D2R agonists suppress food intake, the FDA approved D2R agonist cabergoline was used as an experimental control. Phenotypic characteristics of this PWS mouse model include hyperphagia, postnatal growth retardation, high ghrelin, and low growth hormone. Ding F., et al. SnoRNA Snord116 (Pwcr1/MBII-85) deletion causes growth deficiency and hyperphagia in mice. PloS one. 2008; 3(3):e1709. These PWS mice eat more frequently than WT littermates, particularly during the light cycle and are more motivated to work for food (more level presses) (data not shown).
Acute administration: Mice (3-, 7-, and 12-month-old) were fasted for 16 hours and then administered a single intraperitoneal injection of vehicle or vehicle containing HM04, cabergoline, or HM04 and cabergoline according to Table 8, below.
HM04 was dissolved in water for injection and cabergoline was dissolved in DMSO to provide a 5% DMSO/water solution for injection. Mice were then given free access to food, and cumulative food intake was measured at 1, 2, 4, 8, 12, and 24 hours post-dosing. […] Data was analyzed for significance using 2-way ANOVA, Bonferroni post hoc test (Graphpad Prism, Prism 5.0, San Diego, Calif.).

[2] = test system: ghrelin-induced increase of GH; assay: Ghrelin-induced increase of growth hormone in rats; type: in vivo; settings: after 15 μg/kg ghrelin i.v.
Experimental: Rats were divided into four groups: 1) 1 ml/kg saline plus 10 ml/kg 0.5% CMC p.o. (n=6); 2) 15 μg/kg ghrelin i.v. plus 10 ml/kg 0.5% CMC p.o. (n=6); 3) 30 mg/kg HM04 fumarate salt p.o. 2 hours before 15 μg/kg ghrelin i.v. (n=6); 4) 10 mg/kg ghrelin antagonist R011 i.p. 30 minutes before 15 μg/kg ghrelin i.v. (n=6). Blood was collected as 100 μl samples at time 0 and at 15 minutes after ghrelin injection. Rats were anesthetized with 64.8 mg/kg sodium pentobarbital. A catheter filled with heparinized saline solution was inserted in the left femoral artery for blood collection and fitted with an extension tube, 1-mL sampling syringe, and a 3-way cock to allow excess blood to return.
Plasma levels of growth hormone (GH) were determined using Rat GH ELISA (Millipore, Catalog No. EZRMGH-45K). Measurements were performed in duplicate. […] One-way and two-way ANOVA test was used to compare differences between groups. All values are presented as mean±SEM. One-way ANOVA was performed followed by Turkey's post hoc test where significance was indicated by p values<0.05 or p values<0.01.

[3] = GVS analysis (hygroscopicity); type: physicochemical
Experimental: For the GVS analysis, 15-20 mg of sample was loaded into an IgaSorp vapour sorption balance (Hiden Analytical Instruments). The sample was then dried by maintaining a 0% humidity environment until no further weight change was recorded. The sample was then subjected to a ramping profile from 0 to 90% RH at 10% RH increments, maintaining the sample at each step until equilibration had been attained (99% step completion). Upon reaching equilibrium, the % RH within the apparatus was ramped to the next step and the equilibration procedure repeated. After completion of the sorption cycle, the sample was dried using the same procedure. The weight change during the sorption/desorption cycles were then monitored, allowing for the hygroscopic nature of the sample to be determined.

[4] = Estimated aqueous solubility; type: physicochemical; settings: aqueous (water)
[5] = Rat pharmacokinetic study, HM04 free base vs HM04 fumarate salt (Example 9); type: in vivo, male Sprague Dawley rats; settings: 3 mg/kg oral
Experimental: The pharmacokinetics of HM04 in plasma of male Sprague Dawley rats dosed with a single oral administration of 3 mg/kg HM04 (based on the weight of the free base) formulated in a solution of 10% DMAC, 6% Solutol, and 84% PBS using either the HM04 free base or HM04 fumarate salt were compared. Blood samples were withdrawn at set time intervals and plasma concentration of HM04 was measured by LC-MS/MS. A comparison of the plasma concentration of HM04 (ng/mL) over time in rats dosed orally with HM04 free base and HM04 fumarate salt is provided in FIG. 17.

[6] = Dog pharmacokinetic study, HM04 free base vs HM04 fumarate salt (Example 9); type: in vivo, male Beagle dogs
Experimental: The pharmacokinetics of HM04 in plasma of male Beagle dogs dosed with a single oral administration of 2 mg/kg HM04 formulated in a solution of 10% DMAC, 6% Solutol, and 84% PBS using either the HM04 free base or HM04 fumarate salt were compared. A comparison of the plasma concentration of HM04 (ng/mL) over time in dogs dosed orally with HM04 free base and HM04 fumarate salt is provided in FIG. 18. Bioavailability was calculated from a dose normalized ratio of the oral mean AUC to the intravenous mean AUC (AUCpo/AUCiv×Doseiv/Dosepo).

[7] = Rat pharmacokinetic study, HM04 free base vs HM04 fumarate salt (Example 9); type: in vivo, male Sprague Dawley rats
[8] = Dog pharmacokinetic study, HM04 free base vs HM04 fumarate salt (Example 9); type: in vivo, male Beagle dogs; remark: listed apart in the source
[9] = male, Sprague Dawley, plasma, mean ± S.D., n=3
[10] = male, Beagle, plasma, 2 mg/kg oral, mean ± S.D., n=3

C=CCN1C[C@H](C(=O)N(CCCN(C)C)C(=O)NCC)C[C@@H]2c3cccc4[nH]cc(c34)C[C@H]21 [Cabergoline, cabergoline, reference compound]
cumulative food intake ([1]; 7-month-old Het mice): inhibited food intake | cumulative food intake ([1]; 7-month-old WT mice): inhibited food intake

ghrelin: growth hormone-releasing peptide, injected i.v. to induce GH increase (GSSFLSPEHQRVQQRKESKKPPAKLQPR; ends and bridges not checked; UniProt Q9UBU3 24-51, looked up) [reference compound]
mean plasma GH concentration [2]: 90 to 120 ng/mL

CN1CCC(N(C)C(=O)N[C@H](c2ccc(-c3cnccn3)c(Cl)c2Cl)C(F)(F)F)CC1 [HM04 free base, (R)-3-(1-(2,3-dichloro-4-(pyrazin-2-yl)phenyl)-2,2,2-trifluoroethyl)-1-methyl-1-(1-methylpiperidin-4-yl) Urea]
hygroscopicity (GVS) [3]: slightly hygroscopic | weight gain (GVS) ([3]; up to 70% relative humidity (RH)): approximately 1.5% | weight gain (GVS) ([3]; up to 80% RH): approximately 2% | solubility [4]: < 2000 µg/mL | HM04 plasma concentration ([5]; 0.50 hours, mean ± S.D., n=3): 39.0 ± 5.2 ng/mL | HM04 plasma concentration ([5]; 1 hour, mean ± S.D., n=3): 44.4 ± 6.0 ng/mL | HM04 plasma concentration ([5]; 2 hours, mean ± S.D., n=3): 35.7 ± 11.3 ng/mL | HM04 plasma concentration ([5]; 8 hours, mean ± S.D., n=3): 7.9 ± 5.8 ng/mL | AUC(0-t) [5, 9]: 220 ± 57.2 ng·h/mL | Tmax [5, 9]: 1 h | concentration at 24 hours ([5]; male, Sprague Dawley, plasma, po, 3 mg/kg, 24 hours, N = 1 (two of three animals below level of quantification)): 2.4 ng/mL | HM04 plasma concentration ([6]; 2 mg/kg oral, 0.25 hours, mean ± S.D., n=3): 8.94 ± 5.56 ng/mL | HM04 plasma concentration ([6]; 2 mg/kg oral, 0.50 hours, mean ± S.D., n=3): 49.40 ± 7.72 ng/mL | HM04 plasma concentration ([6]; 2 mg/kg oral, 2 hours, mean ± S.D., n=3): 74.05 ± 3.77 ng/mL | bioavailability ([6]; male, Beagle, plasma, 2 mg/kg oral vs 1 mg/kg intravenous, dose normalized AUC ratio): 59.4 ± 9.11% | AUC(0-t) [6, 10]: 929 ± 142 ng·h/mL | Cmax [6, 10]: 74 ± 3.77 ng/mL | Tmax [6, 10]: 2 h | HM04 plasma concentration ([7]; 3 mg/kg oral, 0.25 hours, mean ± S.D., n=3): 24.2 ± 6.6 ng/mL | HM04 plasma concentration ([7]; 3 mg/kg oral, 4 hours, mean ± S.D., n=3): 25.0 ± 13.0 ng/mL | AUC ([7]; male, Sprague Dawley, plasma, 3 mg/kg intravenous, three rats, read-out: mean AUC following intravenous administration): 990 ± 24.6 ng·h/mL | bioavailability ([7]; male, Sprague Dawley, plasma, 3 mg/kg oral vs 3 mg/kg intravenous mean AUC): 22.2 ± 5.8% | Cmax ([7]; male, Sprague Dawley, plasma, 3 mg/kg oral, mean ± S.D., n=3): 44.4 ± 6 ng/mL | HM04 plasma concentration ([8]; 2 mg/kg oral, 1 hour, mean ± S.D., n=3): 66.33 ± 4.25 ng/mL | HM04 plasma concentration ([8]; 2 mg/kg oral, 4 hours, mean ± S.D., n=3): 67.34 ± 6.27 ng/mL | AUC ([8]; male, Beagle, plasma, 1 mg/kg intravenous, three dogs, read-out: mean AUC following intravenous administration): 782 ± 364 ng·h/mL | concentration at 8 h ([8]; male, Beagle, plasma, po, 2 mg/kg, 2 mg/kg oral, 8 hours, mean ± S.D., n=3): 49.2 ± 10.2 ng/mL | concentration at 24 h ([8]; male, Beagle, plasma, po, 2 mg/kg, 2 mg/kg oral, 24 hours, mean ± S.D., n=3): 6.61 ± 4.38 ng/mL
